Experiment: gradient 5% acetonitrile 3 min, to 50% in 2 min, to 85% in 15 min, held 3 min, 100 µL/min
Settings: column: Zorbax Extend-C18 2.1 x 50 mm; eluents: water / acetonitrile, 0.1% formic acid
Outline: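 Pure standards were run in mixtures of ~100 molecules by HPLC coupled to a quadrupole time-of-flight mass spectrometer. The column was a Zorbax Extend-C18 (2.1 × 50 mm, 1.8 μm) at 100 μL/min, with water and acetonitrile each containing 0.1% formic acid, in positive and negative ionization mode. Dead and dwell volumes were 40 μL and 900 μL. Retention time was taken from computationally picked adduct peaks, each manually inspected, with data collected over 3 months.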

RP-LC retention time | Structure (SMILES)
717 s | Cc1cc(C)n(CC2CCN(C(=O)c3cc4ccccc4[nH]3)CC2)n1
685 s | CCCS(=O)(=O)N1CCC(N2C[C@H](Oc3ccccc3)[C@@H]2c2ccncc2)CC1
724 s | COc1ccc(-c2cn3c(CC(=O)Nc4ccccc4F)csc3n2)cc1OC
799 s | CCc1ccc(OCC(=O)Nc2nnc(C3CC(=O)N(c4ccccc4)C3)o2)cc1 (stereo not given)
924 s | COc1ccc(-c2cn3ccn(-c4cc(C)c(Cl)cc4OC)c(=O)c3n2)cc1
859 s | COC(=O)c1c(NCc2ccccc2C)c2cccc(Cl)c2[nH]c1=O
895 s | CCc1nc(OCC(=O)Nc2ccc(C)cc2Br)c2ccccc2n1
624 s | CCCn1nnc2cc(-c3noc(CNC(=O)c4ccccc4)n3)ccc21
584 s | Cn1cc(CCN2CCC(C(=O)NCc3ccc4c(c3)OCO4)CC2)c2cccnc21
637 s | Cc1ccc(S(=O)(=O)NCCn2c(C)cnc2C2CCC2)cc1F
1010 s | CC(C)c1ccc(Nc2c(-c3ccc(N(C)C)cc3)nc3cnccn23)cc1
590 s | Cc1noc(CNC(=O)C2CCN(C(=O)Cc3ccccc3Cl)CC2)n1
770 s | O=C(NCCCn1ncccc1=O)c1cccc(-n2ccc3ccccc32)c1
744 s | CCN1C(=O)COc2ccc(-c3noc(C4CCN(C(C)=O)CC4)n3)cc21
927 s | Cc1c(Cl)cccc1NC(=O)Cn1c(=O)n(-c2ccccc2)c(=O)c2c1cc(C)n2C
585 s | Cc1ccc(NC(=O)CN2CCC(C(=O)NCc3c(F)cccc3F)CC2)c(C)c1
1090 s | COc1ccc(-c2cc(C(=O)Nc3ccc(F)cc3)sn2)cc1
678 s | Cn1nc(C(=O)Nc2ccccc2)c2c1CCN(C(=O)CCC(=O)NC1CC1)C2
933 s | O=S(=O)(c1ccc(-c2nnc(C3CCCC3)o2)o1)N1CCCC1
658 s | CCCS(=O)(=O)N1CCCC(Cn2c(C3CC3)nc3cccnc32)C1 (stereo not given)
623 s | COCCCNC(=O)C1CCN(c2nc3cccnc3s2)CC1
1160 s | COc1ccc(-c2nc(-c3ccc4c(c3)oc(=O)n4C(C)C)no2)cc1F

RP-LC retention time | Structure (SMILES)
771 s | COc1ccccc1NC(=O)CN1CCN(Cc2ccc(C)cc2)C(=O)C1=O
1100 s | O=C(Cn1cccc1-c1nc(-c2ccc(Cl)cc2)cs1)N1CCN(c2ncccn2)CC1
812 s | COc1ccc(CNC(=O)C2CCCN(C(=O)c3[nH]c(C)c(C(=O)OC(C)C)c3C)C2)cc1 (stereo not given)
830 s | CN(C)S(=O)(=O)c1ccc(NC(=O)N2CCCC(C(=O)Nc3ccc(F)cc3)C2)s1 (stereo not given)
1130 s | COc1cccc(-c2nc(Cn3c(=O)c4c(C)cc(C)nc4n(C)c3=O)c(C)o2)c1OC
568 s | O=C1NC(C(=O)N2CCOCC2)Cn2cccc21 (stereo not given)
807 s | CCc1ccc(C(=O)CC2(O)C(=O)Nc3c(C)cccc32)cc1 (stereo not given)
1080 s | Cc1ccc(Cn2cccc2C(=O)C(=O)NCc2ccc(C)o2)cc1
670 s | Cc1ccc(C(=O)NCC2CN(C(C)C)CC23CCCCC3)s1 (stereo not given)
1320 s | CCc1ccc(OCc2nc(C)c(C(=O)Nc3nc(-c4ccc(F)cc4)cs3)s2)cc1
693 s | COc1cccc(-c2n[nH]c3c2C(c2ccc(O)cc2)N(C)C3=O)c1 (stereo not given)
702 s | Cn1cnc(S(=O)(=O)N2CCC(C(=O)NCc3ccc(Cl)cc3)CC2)c1
630 s | Cc1ccc(NC(=O)CSCC(=O)N2CCC(C(N)=O)CC2)cc1
702 s | O=C(NCc1ccccn1)C1CCCN(c2ccc(Sc3ccc(Br)cc3)nn2)C1 (stereo not given)
716 s | CCCCCCNc1nc(-c2ccc(OC)cc2)c(CCC(=O)O)s1
973 s | Cc1ccc(CCC(=O)Nc2nc(-c3ccc4c(c3)NC(=O)C(C)O4)cs2)cc1 (stereo not given)
856 s | CSc1ccc(NS(=O)(=O)c2cc3c(s2)CCN(C(=O)C2CC2)C3)cc1
794 s | COc1ccc(NC(=O)Cn2nc(N3CCOCC3)c3ccccc3c2=O)cc1Cl
790 s | COc1ccc(OC)c(NC(=O)CN2C(=O)NC(c3ccc(Cl)cc3)C3=C2COC3=O)c1 (stereo not given)
1010 s | Cc1ccc(Cn2c(=O)c(N3CCN(C(=O)NCc4ccco4)CC3)nc3ccccc32)cc1
971 s | COc1ccc(-c2noc(C3CCCN3C(=O)c3cc4ccccc4[nH]3)n2)cc1OC (stereo not given)
582 s | CCN(CC)C(=O)N1CCC2(CC1)CC(N1CCN(c3ccccc3)CC1)CCO2 (stereo not given)

RP-LC retention time | Structure (SMILES)
868 s | O=C(NCCc1csc(-c2ccc(F)cc2)n1)c1ccco1
690 s | CSc1ncccc1C(=O)N(Cc1ccsc1)Cc1ccccn1
679 s | c1ccc(-c2noc(-c3ccccc3OC3CNC3)n2)cc1
1020 s | Cc1ccc(-c2nnc(-c3nn(C)c4c3CN(S(=O)(=O)c3ccccc3Cl)CC4)o2)cc1
843 s | CCN1C(=O)C(C)(C(=O)NCc2ccccc2OC)Oc2cccnc21 (stereo not given)
831 s | Cc1cccc(-c2csc3c(=O)n(Cc4cc(=O)n5ccccc5n4)cnc23)c1
780 s | CCCC(=O)N1CCCN(C2=NS(=O)(=O)C(c3ccc(F)cc3)=C2C)CC1
650 s | COCCn1ncc(N2CCC(C(=O)N(C)CC(=O)Nc3ccc(F)cc3)C2)cc1=O (stereo not given)
763 s | CCc1noc(NC(C)=O)c1-c1ccc(OC)c(S(=O)(=O)Nc2ccccc2F)c1
917 s | CCOC(=O)c1cnc2nc(-c3ccccc3)nn2c1C
957 s | Fc1ccc(-c2nnc(Cc3nc(-c4ccc5c(c4)OCO5)no3)o2)cc1
587 s | O=C(NCc1nc2ccccc2n1CC(=O)N1CCCC1)c1ccco1
1320 s | CCOc1nc2ccccc2nc1N1CCCC(C(=O)Nc2ccc(Br)cc2C)C1 (stereo not given)
668 s | Cn1ncc2c3ccccc3n(CC(=O)N3CCN(C(=O)c4ccco4)CC3)c2c1=O
817 s | CCN(CC)S(=O)(=O)N1CCC(C(=O)NCCc2ccccc2)CC1
610 s | CCc1cc(=O)n(CC(=O)Nc2ccccc2CC)c(N)n1
796 s | COc1ccc(OC)c(S(=O)(=O)N2CCCC(C(=O)NCC(C)C)C2)c1 (stereo not given)
812 s | CCOC(=O)C(C)NC(=O)Nc1cc(F)c2nc(N3CCOCC3)ccc2c1 (stereo not given)
872 s | CCCN1C(=O)COc2ccc(-c3noc(-c4cccc(NC(C)=O)c4C)n3)cc21
920 s | COc1ccc(C(=O)N2CCc3cn(C)c4cccc(c34)C2)cc1
932 s | Cc1cccc(-n2cc(C(=O)OCc3ccccn3)c3ccccc3c2=O)c1
1070 s | O=C(Nc1ccccc1Cl)C(=O)c1cn(CC(=O)N2CCCC2)c2ccccc12

RP-LC retention time | Structure (SMILES)
565 s | Cc1cccn2cc(C(=O)NCc3ccc(N(C)C)cc3)nc12
574 s | COc1ccc2[nH]c(=O)c(CCC(=O)NCc3ccncc3)cc2c1
800 s | CCOc1ccc(-n2c(N3CCSCC3)nc3cc(C(=O)OC)ccc3c2=O)cc1
760 s | CCOC(=O)c1ccc(Nc2ncnc3c2ncn3CC)cc1
855 s | CSc1ccccc1N1CCN(CCCCCC(=O)NC2CCCc3ccccc32)CC1 (stereo not given)
578 s | Cc1ccccc1Cn1cnc2c(cnn2CCNC(=O)Cn2cnc3ccccc32)c1=O
1140 s | O=C(NCc1ccc(F)cc1)c1c(O)c2cccnc2n(-c2cccc(F)c2)c1=O
896 s | Cc1nc(N2CCOCC2)c2c(C(=O)Nc3ccc(F)cc3Cl)c(C)oc2n1
1140 s | CCOc1ccc(-n2cc(C(=O)OCC(=O)OC(C)C)c3ccccc3c2=O)cc1
987 s | O=C(CN1C(=O)CCCc2cc(S(=O)(=O)N3CCCCCC3)ccc21)NC1CCCCC1
1180 s | Cc1ccc(N2CC(c3noc(-c4ccc(-c5ccccc5)cc4)n3)CC2=O)cc1 (stereo not given)
782 s | O=C(c1cncc(Br)c1)N1CCC(Cc2nnc(-c3ccccc3)o2)CC1
1110 s | CCCN1C(=O)COc2ccc(-c3noc(-c4ccc5cc[nH]c5c4)n3)cc21
714 s | CN1CCCn2cc(S(=O)(=O)Nc3ccc(Cl)cc3)cc2C1=O
708 s | CCC(C)NC(=O)c1nc(-c2ccnc(N3CCCCCC3)c2)no1 (stereo not given)
809 s | COc1ccc(-c2noc(CN3CCN(c4ccc(OC)cc4)CC3)n2)cc1
705 s | O=C(Cn1nc2n(c1=O)CCCC2)Nc1cccc(C(F)(F)F)c1
1110 s | CSc1sc(C)cc1-c1nsc(=O)o1
978 s | Cc1ccc(C)c(NC(=O)CCCN2C(=O)COc3ccc(C)cc32)c1

Structure (SMILES) | RP-LC retention time
O=C(CN1CC=C(c2cnn(-c3ccccc3)c2)CC1)N1CCN(c2ccccc2)CC1 | 702 s
Cc1ccc(C)c(Cn2nnc(C(=O)O)c2C)c1 | 783 s
COc1ccc2c(c1)C1(CCN(C(=O)NCCC(C)C)C1)C(=O)N2C (stereo not given) | 770 s
Cc1nn(C)c(C)c1S(=O)(=O)N1[C@H]2CC[C@@H]1c1cnc(-c3ccc(F)cc3)nc1C2 | 924 s
CN1C(=O)CN=C(c2ccccc2)c2cc([N+](=O)[O-])ccc21 | 869 s
